Assay results published in the supplement of paper PMC10627819.

What was measured:
B. subtilis 168 [1] = experiment: Bliss interaction score (quartile over a dose matrix) (fitness difference); higher = more antagonism (negative = synergy)
Procedure, shortened: (§1)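 The Bliss score is observed minus expected fitness under the product model, reported as quartiles over technical, biological and donor/recipient replicates. Fitness is the OD595 at entry into stationary phase divided by the plate's robust no-drug mean and capped at 1. Single-drug fitness was inferred from combination data.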

S. aureus DSM 20231 = experiment: as above
Procedure, shortened: as §1

S. aureus Newman = experiment: as above
Procedure, shortened: as §1

S. pneumoniae D39V [2] = experiment: as above
Procedure, shortened: as §1

B. subtilis 168 [3] = experiment: fitness (endpoint OD595 vs no drug) (fraction); higher = more growth
Procedure, shortened: (§2)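 Plates with 384 wells were inoculated at OD595 0.01 using 30 µl of TSB, LB Lennox or CY, or 55 µl for S. pneumoniae. Incubation was at 37 °C, with OD595 measured every 30 min for 14 h. Fitness is the stationary-phase transition optical density over the robust mean of no-drug control wells, after first-reading background subtraction; it is capped at 1.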

S. pneumoniae D39V [4] = experiment: as above
Procedure, shortened: as §2
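Throughout, for Bliss interaction score (quartile over a dose matrix): first quartile when negative (synergy) and third quartile when positive (antagonism).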

O=C(O)c1cn(C2CC2)c2cc(N3CCNCC3)c(F)cc2c1=O [Ciprofloxacin] + C[C@H]1COc2c(N3CCN(C)CC3)c(F)cc3c(=O)c(C(=O)O)cn1c23 [Levofloxacin]
Conditions | Bliss interaction score
B. subtilis 168 [1] | -0.0411
S. aureus DSM 20231 | -0.147
S. aureus Newman | -0.194
S. pneumoniae D39V [2] | -0.166

one replicate
Conditions | fitness
B. subtilis 168 [3], first compound 0.0098 µg/mL, partner 0.001 µg/mL | 0.863
B. subtilis 168 [3], first compound 0.0098 µg/mL, partner 0.0078 µg/mL | 0.934
B. subtilis 168 [3], first compound 0.0195 µg/mL, partner 0.001 µg/mL | 0.829
B. subtilis 168 [3], first compound 0.0195 µg/mL, partner 0.0078 µg/mL | 0.683
B. subtilis 168 [3], first compound 0.039 µg/mL, partner 0.001 µg/mL | 0.291
B. subtilis 168 [3], first compound 0.039 µg/mL, partner 0.0078 µg/mL | 0.0887
S. pneumoniae D39V [4], first compound 0.25 µg/mL, partner 0.2 µg/mL | 0.752
S. pneumoniae D39V [4], first compound 0.25 µg/mL, partner 0.4 µg/mL | 0.559
S. pneumoniae D39V [4], first compound 0.25 µg/mL, partner 0.8 µg/mL | 0.124

Conditions | fitness
B. subtilis 168 [3], first compound 0.0098 µg/mL, partner 0.002 µg/mL | 0.855
B. subtilis 168 [3], first compound 0.0098 µg/mL, partner 0.0039 µg/mL | 0.873
B. subtilis 168 [3], first compound 0.0098 µg/mL, partner 0.0312 µg/mL | 0.0377
B. subtilis 168 [3], first compound 0.0098 µg/mL, partner 0.0625 µg/mL | 0.0424
B. subtilis 168 [3], first compound 0.0098 µg/mL, partner 0.125 µg/mL | 0.0385
B. subtilis 168 [3], first compound 0.0195 µg/mL, partner 0.002 µg/mL | 0.727
B. subtilis 168 [3], first compound 0.0195 µg/mL, partner 0.0039 µg/mL | 0.722
B. subtilis 168 [3], first compound 0.0195 µg/mL, partner 0.0312 µg/mL | 0.0376
B. subtilis 168 [3], first compound 0.0195 µg/mL, partner 0.0625 µg/mL | 0.0489
B. subtilis 168 [3], first compound 0.0195 µg/mL, partner 0.125 µg/mL | 0.0429
B. subtilis 168 [3], first compound 0.039 µg/mL, partner 0.002 µg/mL | 0.123
B. subtilis 168 [3], first compound 0.039 µg/mL, partner 0.0039 µg/mL | 0.145
B. subtilis 168 [3], first compound 0.039 µg/mL, partner 0.0312 µg/mL | 0.0451
B. subtilis 168 [3], first compound 0.039 µg/mL, partner 0.0625 µg/mL | 0.0495
B. subtilis 168 [3], first compound 0.039 µg/mL, partner 0.125 µg/mL | 0.0401
S. pneumoniae D39V [4], first compound 0.125 µg/mL, partner 0.1725 µg/mL | 0.884
S. pneumoniae D39V [4], first compound 0.125 µg/mL, partner 0.2 µg/mL | 0.883
S. pneumoniae D39V [4], first compound 0.125 µg/mL, partner 0.345 µg/mL | 0.794
S. pneumoniae D39V [4], first compound 0.125 µg/mL, partner 0.4 µg/mL | 0.735
S. pneumoniae D39V [4], first compound 0.125 µg/mL, partner 0.69 µg/mL | 0.498
S. pneumoniae D39V [4], first compound 0.125 µg/mL, partner 0.8 µg/mL | 0.201
S. pneumoniae D39V [4], first compound 0.25 µg/mL, partner 0.1725 µg/mL | 0.83
S. pneumoniae D39V [4], first compound 0.25 µg/mL, partner 0.345 µg/mL | 0.723
S. pneumoniae D39V [4], first compound 0.25 µg/mL, partner 0.69 µg/mL | 0.445
S. pneumoniae D39V [4], first compound 0.5 µg/mL, partner 0.1725 µg/mL | 0.592
S. pneumoniae D39V [4], first compound 0.5 µg/mL, partner 0.345 µg/mL | 0.462
S. pneumoniae D39V [4], first compound 0.5 µg/mL, partner 0.69 µg/mL | 0.282
S. pneumoniae D39V [4], first compound 0.5 µg/mL, partner 0.8 µg/mL | 0.145

O=C(O)c1cn(C2CC2)c2cc(N3CCNCC3)c(F)cc2c1=O [Ciprofloxacin] + C[C@H]1c2cccc(O)c2C(=O)C2=C(O)[C@]3(O)C(=O)C(C(N)=O)=C(O)[C@@H](N(C)C)[C@@H]3[C@@H](O)[C@@H]21 [Doxycycline]
Conditions | Bliss interaction score
B. subtilis 168 [1] | 0.183
S. aureus DSM 20231 | 0.0661
S. aureus Newman | 0.0631
S. pneumoniae D39V [2] | 0.0673

fitness
Conditions | partner 0.0155 µg/mL | partner 0.02 µg/mL | partner 0.031 µg/mL | partner 0.04 µg/mL | partner 0.08 µg/mL
B. subtilis 168 [3], first compound 0.0098 µg/mL | – | 0.879 | – | 0.813 | 0.677
B. subtilis 168 [3], first compound 0.0195 µg/mL | – | 0.726 | – | 0.688 | 0.58
S. pneumoniae D39V [4], first compound 0.125 µg/mL | 0.891 | – | 0.742 | – | –
S. pneumoniae D39V [4], first compound 0.25 µg/mL | 0.892 | – | 0.703 | – | –

fitness, S. pneumoniae D39V [4], one replicate
Conditions | first compound 0.125 µg/mL | first compound 0.25 µg/mL | first compound 0.5 µg/mL
partner 0.003875 µg/mL | ≥ 1 | 0.931 | 0.804
partner 0.00775 µg/mL | 0.967 | 0.913 | 0.825

COc1cccc2c1C(=O)c1c(O)c3c(c(O)c1C2=O)C[C@@](O)(C(=O)CO)C[C@@H]3O[C@H]1C[C@H](N)[C@H](O)[C@H](C)O1 [Doxorubicin] + CCC(C)C1C(=O)NC(=C)C(=O)NC(C(=O)NC(CSCC(C(=O)N1)NC(=O)/C(=C/C)/NC(=O)C(C(C)CC)N)C(=O)NC2C(SCC(NC(=O)CNC(=O)C3CCCN3C2=O)C(=O)NC(CCCCN)C(=O)NC4C(SCC(NC(=O)CNC(=O)C(NC(=O)C(NC(=O)C(NC(=O)CNC4=O)C)CC(C)C)CCSC)C(=O)NC(CC(=O)N)C(=O)NC(CCSC)C(=O)NC(CCCCN)C(=O)NC5C(SCC6C(=O)NC(C(=O)NC(CSC(C(C(=O)N6)NC(=O)C(NC5=O)C)C)C(=O)NC(CO)C(=O)NC(C(C)CC)C(=O)NC(CC7=CN=CN7)C(=O)NC(C(C)C)C(=O)NC(=C)C(=O)NC(CCCCN)C(=O)O)CC8=CN=CN8)C)C)C)CC(C)C [Nisin]
main component drawn
Conditions | Bliss interaction score
B. subtilis 168 [1] | 0.0614
S. aureus DSM 20231 | 0.0625
S. aureus Newman | -0.0646
S. pneumoniae D39V [2] | -0.0536

main component drawn
Conditions | fitness
B. subtilis 168 [3], first compound 0.625 µg/mL, partner 0.5 µg/mL | 0.882
B. subtilis 168 [3], first compound 0.625 µg/mL, partner 1 µg/mL | 0.852
B. subtilis 168 [3], first compound 0.625 µg/mL, partner 2 µg/mL | 0.459
B. subtilis 168 [3], first compound 1.25 µg/mL, partner 0.5 µg/mL | 0.821
B. subtilis 168 [3], first compound 1.25 µg/mL, partner 1 µg/mL | 0.83
B. subtilis 168 [3], first compound 1.25 µg/mL, partner 2 µg/mL | 0.567
B. subtilis 168 [3], first compound 2.5 µg/mL, partner 0.5 µg/mL | 0.688
B. subtilis 168 [3], first compound 2.5 µg/mL, partner 1 µg/mL | 0.603
B. subtilis 168 [3], first compound 2.5 µg/mL, partner 2 µg/mL | 0.19
S. pneumoniae D39V [4], first compound 0.25 µg/mL, partner 0.4275 µg/mL | 0.998
S. pneumoniae D39V [4], first compound 0.25 µg/mL, partner 0.855 µg/mL | 0.991
S. pneumoniae D39V [4], first compound 0.25 µg/mL, partner 1.6 µg/mL | 0.0164
S. pneumoniae D39V [4], first compound 0.25 µg/mL, partner 1.71 µg/mL | 0.0746
S. pneumoniae D39V [4], first compound 0.25 µg/mL, partner 3.2 µg/mL | 0.0268
S. pneumoniae D39V [4], first compound 0.25 µg/mL, partner 6.4 µg/mL | 0.0249
S. pneumoniae D39V [4], first compound 0.5 µg/mL, partner 0.4275 µg/mL | 0.977
S. pneumoniae D39V [4], first compound 0.5 µg/mL, partner 0.855 µg/mL | 0.91
S. pneumoniae D39V [4], first compound 0.5 µg/mL, partner 1.6 µg/mL | 0.0215
S. pneumoniae D39V [4], first compound 0.5 µg/mL, partner 1.71 µg/mL | 0.0797
S. pneumoniae D39V [4], first compound 0.5 µg/mL, partner 3.2 µg/mL | 0.0424
S. pneumoniae D39V [4], first compound 0.5 µg/mL, partner 6.4 µg/mL | 0.039
S. pneumoniae D39V [4], first compound 1 µg/mL, partner 0.4275 µg/mL | 0.844
S. pneumoniae D39V [4], first compound 1 µg/mL, partner 1.6 µg/mL | 0.0081
S. pneumoniae D39V [4], first compound 1 µg/mL, partner 1.71 µg/mL | 0.065
S. pneumoniae D39V [4], first compound 1 µg/mL, partner 3.2 µg/mL | 0.0126
S. pneumoniae D39V [4], first compound 1 µg/mL, partner 6.4 µg/mL | 0.0281

fitness, B. subtilis 168 [3], one replicate, main component drawn
Conditions | partner 1.25 µg/mL | partner 1.6 µg/mL | partner 2.5 µg/mL | partner 3.2 µg/mL | partner 4 µg/mL | partner 5 µg/mL | partner 6.4 µg/mL | partner 8 µg/mL | partner 16 µg/mL
first compound 0.625 µg/mL | ≥ 1 | 0.646 | 0.612 | 0.0265 | 0.0271 | 0.0205 | 0.0251 | 0.0074 | 0.0185
first compound 1.25 µg/mL | 0.996 | 0.742 | 0.659 | 0.0085 | 0.0489 | 0.0315 | 0.0249 | 0.0463 | 0.0265
first compound 2.5 µg/mL | 0.888 | 0.178 | 0.451 | 0.0274 | 0.0327 | 0.0219 | 0.0137 | 0.0311 | 0.0578

COc1cccc2c1C(=O)c1c(O)c3c(c(O)c1C2=O)C[C@@](O)(C(=O)CO)C[C@@H]3O[C@H]1C[C@H](N)[C@H](O)[C@H](C)O1 [Doxorubicin] + CN(C)C(=O)C(CCN1CCC(O)(c2ccc(Cl)cc2)CC1)(c1ccccc1)c1ccccc1 [Loperamide]
Conditions | Bliss interaction score
B. subtilis 168 [1] | -0.228
S. aureus DSM 20231 | -0.0983
S. aureus Newman | -0.0664
S. pneumoniae D39V [2] | 0.0787

Conditions | fitness
B. subtilis 168 [3], first compound 0.625 µg/mL, partner 50 µg/mL | 0.0285
B. subtilis 168 [3], first compound 0.625 µg/mL, partner 100 µg/mL | 0.0284
B. subtilis 168 [3], first compound 1.25 µg/mL, partner 50 µg/mL | 0.0281
B. subtilis 168 [3], first compound 1.25 µg/mL, partner 100 µg/mL | 0.0427
B. subtilis 168 [3], first compound 2.5 µg/mL, partner 25 µg/mL | 0.0131
B. subtilis 168 [3], first compound 2.5 µg/mL, partner 50 µg/mL | 0.0232
B. subtilis 168 [3], first compound 2.5 µg/mL, partner 100 µg/mL | 0.019
S. pneumoniae D39V [4], first compound 0.25 µg/mL, partner 17.14 µg/mL | 0.905
S. pneumoniae D39V [4], first compound 0.25 µg/mL, partner 20 µg/mL | ≥ 1
S. pneumoniae D39V [4], first compound 0.25 µg/mL, partner 34.28 µg/mL | 0.884
S. pneumoniae D39V [4], first compound 0.25 µg/mL, partner 40 µg/mL | ≥ 1
S. pneumoniae D39V [4], first compound 0.5 µg/mL, partner 17.14 µg/mL | 0.915
S. pneumoniae D39V [4], first compound 0.5 µg/mL, partner 20 µg/mL | ≥ 1
S. pneumoniae D39V [4], first compound 0.5 µg/mL, partner 34.28 µg/mL | 0.899
S. pneumoniae D39V [4], first compound 0.5 µg/mL, partner 40 µg/mL | ≥ 1
S. pneumoniae D39V [4], first compound 1 µg/mL, partner 17.14 µg/mL | 0.912
S. pneumoniae D39V [4], first compound 1 µg/mL, partner 20 µg/mL | 0.991
S. pneumoniae D39V [4], first compound 1 µg/mL, partner 34.28 µg/mL | 0.902
S. pneumoniae D39V [4], first compound 1 µg/mL, partner 40 µg/mL | 0.967

S. pneumoniae D39V [4], partner 68.57 µg/mL, one replicate
Conditions | fitness
first compound 0.25 µg/mL | 0.87
first compound 0.5 µg/mL | 0.872
first compound 1 µg/mL | 0.929
